target: K-Ras G12C (Homo sapiens (Human), UniProt P01116, G12C); assay: Western blot assay for in cell alkylation of K-Ras G12C (HCC1171 cells); format: cell-based; settings: 18 hours at 37° C., 7 point dose response
Procedure: HCC1171 cells were maintained in RPMI1640 supplemented with 10% FBS. Cells were plated in a 96-well plate at 20,000 cells/well and the following day compounds were added to the cells. After 18 hours at 37° C., cells were lysed in RIPA buffer (Sigma RO278) with 0.5% SDS and protease/phosphatase inhibitor cocktail. After through mixing to enable complete lysis, the lysates were cleared by centrifugation before 20 µl was transferred from each well and combined with loading buffer and reducing agent. After heating for 10 minutes at 95° C., […] of each sample was loaded onto a 4-20% Tris-Glycine gel and electrophoresed at 110V for 165 minutes in SDS-PAGE running buffer. Gels were transferred to a nitrocellulose membrane, blocked for 1 hour and stained overnight at 4° C. with primary antibody against K-Ras (polyclonal Proteintech 12063-1-AP). The membrane was then washed thoroughly and counterstained with anti-rabbit IRDye 800CW (LI-COR 926-32211) for one hour at room temperature. After final washes, the membrane was imaged on a LI-COR Odyssey CLx at medium resolution. […] To quantify this affect, the LICOR software was used to draw a rectangle over alkylated and unalkylated bands for each well and measured the total fluorescent intensity (FI) in each of these bands. The following formula was then used to calculate % alkylation: FI(alkylated)/(FI(alkylated)+FI(unalkylated))*100 for each well.
A 7 point dose response curve was used to determine the IC50 for each compound. Cell alkylation data are presented below in Table 3.

Chain of K-Ras G12C (P01116 other isoform, or with tags, fused parts or gaps G12C): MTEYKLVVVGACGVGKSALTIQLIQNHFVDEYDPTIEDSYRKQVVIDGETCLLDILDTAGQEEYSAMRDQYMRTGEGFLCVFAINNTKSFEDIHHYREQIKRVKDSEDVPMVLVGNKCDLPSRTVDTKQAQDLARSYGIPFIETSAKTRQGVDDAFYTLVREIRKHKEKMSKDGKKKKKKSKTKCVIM

For `C=CC(=O)N1CCN(c2ncnc3cc(-c4nc(N)cc5ccccc45)c(Cl)cc23)CC1` [Example 1, 1-[4-[7-(3-amino-1-isoquinolyl)-6-chloro-quinazolin-4-yl]piperazin-1-yl]prop-2-en-1-one], which EC50 is on record?
Its EC50 is 0.56 µM.

Which EC50 does the source give for `C=CC(=O)N1CCN(c2ncnc3cc(-c4nc(N)ccc4C(F)F)c(Cl)cc23)CC1` [Example 41, 1-(4-[7-[6-amino-3-(difluoromethyl)pyridin-2-yl]-6-chloroquinazolin-4-yl]piperazin-1-yl)prop-2-en-1-one] here?
The EC50 was 16 µM.

Which EC50 does the source give for `C=CC(=O)N1CC(c2ncnc3cc(-c4nc(N)ccc4C(F)(F)F)c(Cl)cc23)C1` [Example 50, 1-(3-[7-[6-amino-3-(trifluoromethyl)pyridin-2-yl]-6-chloroquinazolin-4-yl]azetidin-1-yl)prop-2-en-1-one] here?
Its EC50 is 5.3 µM.

For `C=CC(=O)N1CCN(c2ncnc3cc(-c4nc(N)cc5cccnc45)c(Cl)cc23)CC1` [Example 3, 1-[4-[7-(6-amino-1,7-naphthyridin-8-yl)-6-chloro-quinazolin-4-yl]piperazin-1-yl]prop-2-en-1-one], which EC50 is on record?
Its EC50 is 21 µM.

Which EC50 does the source give for `C=CC(=O)N1CCN(c2ncnc3cc(-c4nc(N)cc(C)c4Cl)c(Cl)cc23)CC1` [Example 14, 1-(4-(7-(6-amino-3-chloro-4-methylpyridin-2-yl)-6-chloroquinazolin-4-yl)piperazin-1-yl)prop-2-en-1-one] here?
The EC50 was 0.4 µM.

Which EC50 does the source give for `Cc1cc(N)nc(-c2cc3ncnc(N4CCN(C(=O)C5=CCC5)C(C#N)C4)c3cc2Cl)c1C(F)(F)F` (centres unmarked) [Example 23, 4-[7-[6-amino-4-methyl-3-(trifluoromethyl)-2-pyridyl]-6-chloro-quinazolin-4-yl]-1-(cyclobutene-1-carbonyl)piperazine-2-carbonitrile] here?
Its EC50 is 0.91 µM.

`C=CC(=O)N1CCN(c2nc(C(F)(F)F)nc3cc(-c4nc(N)cc(C)c4C(F)(F)F)c(Cl)cc23)CC1` [Example 30, 1-(4-[7-[6-amino-4-methyl-3-(trifluoromethyl)pyridin-2-yl]-6-chloro-2-(trifluoromethyl)quinazolin-4-yl]piperazin-1-yl)prop-2-en-1-one] was tested. Which EC50 did it give?
The EC50 was 7.8 µM.

`Cc1cc(N)nc(-c2cc3ncnc(N4CCN(C(=O)C5CO5)C(C#N)C4)c3cc2Cl)c1C(F)(F)F` (centres unmarked) [Example 24, 4-[7-[6-amino-4-methyl-3-(trifluoromethyl)-2-pyridyl]-6-chloro-quinazolin-4-yl]-1-(oxirane-2-carbonyl)piperazine-2-carbonitrile] was tested. Which EC50 did it give?
Its EC50 is 6.3 µM.

Which EC50 does the source give for `C=CC(=O)N1CCC(C#N)(c2ncnc3cc(-c4nc(N)cc(C)c4C(F)(F)F)c(Cl)cc23)CC1` [Example 22, 4-[7-[6-amino-4-methyl-3-(trifluoromethyl)-2-pyridyl]-6-chloro-quinazolin-4-yl]-1-prop-2-enoyl-piperidine-4-carbonitrile] here?
The EC50 was 2.9 µM.

How did the EC50 turn out when `C=CC(=O)N1CCN(c2nc(OC[C@@H]3CCC4(CC4)N3C)nc3cc(-c4nc(N)ccc4C(F)(F)F)c(Cl)cc23)CC1` [Example 72, (S)-1-(4-(7-(6-amino-3-(trifluoromethyl)pyridin-2-yl)-6-chloro-2-((4-methyl-4-azaspiro[2.4]-heptan-5-yl)methoxy)quinazolin-4-yl)piperazin-1-yl)prop-2-en-1-one] was run?
Its EC50 is 0.055 µM.

How did the EC50 turn out when `C=CC(=O)N1CCN(c2ncnc3cc(-c4nc(N)ccc4C4CC4)c(OC)cc23)CC1` [Example 47, 1-[4-[7-(6-amino-3-cyclopropylpyridin-2-yl)-6-methoxyquinazolin-4-yl]piperazin-1-yl]prop-2-en-1-one] was run?
The EC50 was 3.9 µM.

With `C=CC(=O)N1CCN(c2ncnc3cc(-c4nc(NCC#N)cc5ccccc45)c(Cl)cc23)CC1` [Example 39, 2-[(1-[6-chloro-4-[4-(prop-2-enoyl)piperazin-1-yl]quinazolin-7-yl]isoquinolin-3-yl)amino]acetonitrile] as the molecule, how does the EC50 read?
The EC50 was 10 µM.

How did the EC50 turn out when `C=CC(=O)N1CCN(c2nc(OC[C@@H]3CCCN3CCOC)nc3cc(-c4nc(N)ccc4C(F)(F)F)c(Cl)cc23)CC1` [Example 91, 1-[4-[7-[6-amino-3-(trifluoromethyl)-2-pyridyl]-6-chloro-2-[[(2S)-1-(2-methoxyethyl)pyrrolidin-2-yl]methoxy]quinazolin-4-yl]piperazin-1-yl]prop-2-en-1-one] was run?
The EC50 was 0.04 µM.

How did the EC50 turn out when `C=CC(=O)N1CCN(c2ncnc3cc(-c4nc(N)cc5c(Cl)cccc45)c(Cl)cc23)CC1` [Example 5, 1-[4-[7-(3-amino-5-chloro-1-isoquinolyl)-6-chloro-quinazolin-4-yl]piperazin-1-yl]prop-2-en-1-one] was run?
The EC50 was 2.8 µM.

Which EC50 does the source give for `C=CC(=O)N1CCN(c2nc(OC[C@@H]3C[C@@H](F)[C@H](C)N3C)nc3cc(-c4nc(N)ccc4C(F)(F)F)c(Cl)cc23)CC1` [Example 90, 1-[4-[7-[6-amino-3-(trifluoromethyl)-2-pyridyl]-6-chloro-2-[[(2S,4R,5S)-4-fluoro-1,5-dimethyl-pyrrolidin-2-yl]methoxy]quinazolin-4-yl]piperazin-1-yl]prop-2-en-1-one] here?
Its EC50 is 0.055 µM.

`C=C(F)C(=O)N1CCN(c2nc(OC[C@@H]3C[C@@H](F)CN3C)nc3cc(-c4nc(N)cc(C)c4C(F)(F)F)c(Cl)cc23)CC1CC#N` (stereo partly drawn) [Example 56, 2-[4-[7-[6-amino-4-methyl-3-(trifluoromethyl)-2-pyridyl]-6-chloro-2-[[(2S,4R)-4-fluoro-1-methyl-pyrrolidin-2-yl]methoxy]quinazolin-4-yl]-1-(2-fluoroprop-2-enoyl)piperazin-2-yl]acetonitrile] was tested. Which EC50 did it give?
The EC50 was 0.026 µM.

For `C=CC(=O)N1CCN(c2nc(OCC3(N(C)C)CC3)nc3cc(-c4nc(N)ccc4C(F)(F)F)c(Cl)cc23)CC1` [Example 88, 1-(4-(7-(6-amino-3-(trifluoromethyl)pyridin-2-yl)-6-chloro-2-((1-(dimethylamino)cyclopropyl)methoxy)quinazolin-4-yl)piperazin-1-yl)prop-2-en-1-one], which EC50 is on record?
Its EC50 is 0.24 µM.

`C=C(F)C(=O)N1CCN(c2ncnc3cc(-c4nc(N)ccc4C(F)(F)F)c(Cl)cc23)C[C@@H]1C#N` [Example 46b, (2R)-4-[7-[6-amino-3-(trifluoromethyl)pyridin-2-yl]-6-chloroquinazolin-4-yl]-1-(2-fluoroprop-2-enoyl)piperazine-2-carbonitrile] was tested. Which EC50 did it give?
The EC50 was 0.27 µM.

Which EC50 does the source give for `C=C(F)C(=O)N1CC(C)N(c2nc(OC[C@@H]3C[C@@H](F)CN3C)nc3cc(-c4nc(N)cc(C)c4C(F)(F)F)c(Cl)cc23)C[C@H]1CC#N` (stereo partly drawn) [Example 58, 2-[(2R)-4-[7-[6-amino-4-methyl-3-(trifluoromethyl)-2-pyridyl]-6-chloro-2-[[(2S,4R)-4-fluoro-1-methyl-pyrrolidin-2-yl]methoxy]quinazolin-4-yl]-1-(2-fluoroprop-2-enoyl)-5-methyl-piperazin-2-yl]acetonitrile] here?
Its EC50 is 0.033 µM.

How did the EC50 turn out when `C=CC(=O)N1CCN(c2ncnc3cc(-c4nc(N)cc(C)c4C)c(Cl)cc23)CC1` [Example 13, 1-(4-(7-(6-amino-3,4-dimethylpyridin-2-yl)-6-chloroquinazolin-4-yl)piperazin-1-yl)prop-2-en-1-one] was run?
Its EC50 is 1.3 µM.

With `C=CC(=O)N1CCN(c2ncnc3cc(-c4nc(N)cc(C5CC5)c4C(F)(F)F)c(Cl)cc23)CC1` [Example 34, 1-(4-(7-(6-amino-4-cyclopropyl-3-(trifluoromethyl)pyridin-2-yl)-6-chloroquinazolin-4-yl)piperazin-1-yl)prop-2-en-1-one] as the molecule, how does the EC50 read?
The EC50 was 3.4 µM.

Which EC50 does the source give for `C=CC(=O)N1CCN(c2nc(C)nc3cc(-c4nc(N)cc(C)c4C(F)(F)F)c(Cl)cc23)CC1` [Example 32, 1-(4-[7-[6-amino-4-methyl-3-(trifluoromethyl)pyridin-2-yl]-6-chloro-2-methylquinazolin-4-yl]piperazin-1-yl)prop-2-en-1-one] here?
The EC50 was 0.2 µM.

Which EC50 does the source give for `C=CC(=O)N1CCN(c2nc(OC[C@@H]3CCCN3)nc3c(F)c(-c4nc(N)cc(C)c4C(F)(F)F)c(Cl)cc23)[C@@H](C)C1` [Example 93, 1-((3S)-4-(7-(6-amino-4-methyl-3-(trifluoromethyl)pyridin-2-yl)-6-chloro-8-fluoro-2-(((S)-pyrrolidin-2-yl)methoxy)quinazolin-4-yl)-3-methylpiperazin-1-yl)prop-2-en-1-one] here?
The EC50 was 0.13 µM.

`C=C(F)C(=O)N1CCN(c2nc(OC[C@@H]3CCCN3C)nc3cc(-c4nc(N)cc(C)c4C(F)(F)F)c(Cl)cc23)CC1CC#N` (stereo partly drawn) [Example 55, 2-[4-[7-[6-amino-4-methyl-3-(trifluoromethyl)-2-pyridyl]-6-chloro-2-[[(2S)-1-methylpyrrolidin-2-yl]methoxy]quinazolin-4-yl]-1-(2-fluoroprop-2-enoyl)piperazin-2-yl]acetonitrile] was tested. Which EC50 did it give?
Its EC50 is 0.026 µM.

`C=CC(=O)N1CCN(c2nc(OC3CCCC3N(C)C)nc3cc(-c4nc(N)cc(C)c4C(F)(F)F)c(Cl)cc23)[C@@H](C)C1` (stereo partly drawn) [Example 66, 1-[(3S)-4-[7-[6-amino-4-methyl-3-(trifluoromethyl)-2-pyridyl]-6-chloro-2-[2-(dimethylamino)cyclopentoxy]quinazolin-4-yl]-3-methyl-piperazin-1-yl]prop-2-en-1-one] was tested. Which EC50 did it give?
Its EC50 is 0.028 µM.

Which EC50 does the source give for `C=CC(=O)N1CCN(c2nc(OC[C@@H]3[C@@H]4C[C@@H]4CN3C)nc3cc(-c4nc(N)ccc4C(F)(F)F)c(Cl)cc23)CC1` [Example 78b, 1-(4-(7-(6-amino-3-(trifluoromethyl)pyridin-2-yl)-6-chloro-2-(((1R,2S,5S)-3-methyl-3-azabicyclo[3.1.0]hexan-2-yl)methoxy)quinazolin-4-yl)piperazin-1-yl)prop-2-en-1-one] here?
Its EC50 is 0.04 µM.

— patent US11236068B2, “Fused ring compounds” (Genentech, Inc., priority 2018, dated 2022)
